Data from ChEMBL document CHEMBL1201862, “PubChem BioAssay data set” (2004).
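Step 1: Grow cells in 96-well plates. Step 2: Expose to compound for 48 hours at 5 concentrations. Step 3: Interpolate endpoints linearly; if unreached, use highest concentration. The concentration for 50% growth inhibition is given as GI50.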 Active and inactive are the calls of the source. Cut-off read from the data, not from the text of the source: active = GI50 up to about 1.1 µM and inactive = higher.

Legend:
Experiment in all cases: inhibition of tumour cell growth, NCI panel, 48 h
MDA-MB-435 = test system: MDA-MB-435
KM12 = test system: KM12
A498 = test system: A498
NCI-H522 = test system: NCI-H522
OVCAR-3 = test system: OVCAR-3
SK-MEL-2 = test system: SK-MEL-2
SN12C = test system: SN12C
CAKI-1 = test system: CAKI-1
SF-539 = test system: SF-539
UACC-257 = test system: UACC-257
NCI-H226 = test system: NCI-H226
U-251 = test system: U-251
Hs-578T = test system: Hs-578T
MDA-MB-231 = test system: MDA-MB-231
786-0 = test system: 786-0
HOP-62 = test system: HOP-62
SNB-19 = test system: SNB-19
SW-620 = test system: SW-620
MCF7 = test system: MCF7
DU-145 = test system: DU-145

For `Cc1ccc(Nc2cc(=O)[nH]c(=O)[nH]2)cc1CS`, the GI50 (MDA-MB-435) was > 100 µM (inactive), the GI50 (KM12) was > 100 µM (inactive) and the GI50 (A498) was > 100 µM (inactive). For the same compound, the GI50 (NCI-H522) was > 100 µM (inactive), the GI50 (OVCAR-3) was > 100 µM (inactive) and the GI50 (SK-MEL-2) was > 100 µM (inactive). For the same compound, the GI50 (SN12C) was > 100 µM (inactive), the GI50 (CAKI-1) was > 100 µM (inactive) and the GI50 (SF-539) was > 100 µM (inactive). For the same compound, the GI50 (UACC-257) was > 100 µM (inactive), the GI50 (NCI-H226) was > 100 µM (inactive) and the GI50 (U-251) was > 100 µM (inactive). For the same compound, the GI50 (Hs-578T) was > 100 µM (inactive), the GI50 (MDA-MB-231) was > 100 µM (inactive) and the GI50 (786-0) was > 100 µM (inactive). For the same compound, the GI50 (HOP-62) was > 100 µM (inactive), the GI50 (SNB-19) was > 100 µM (inactive) and the GI50 (SW-620) was > 100 µM (inactive).
`C[C@@]12C(=O)OC(=O)[C@]1(C)[C@H]1CC[C@@H]2O1` [CANTHARIDIN] was tested, and the GI50 (MDA-MB-435) was 1.89 µM (inactive), the GI50 (KM12) was 5.42 µM (inactive) and the GI50 (A498) was 1.12 µM (inactive). The GI50 (NCI-H522) was 0.935 µM (active), the GI50 (OVCAR-3) was 0.759 µM (active) and the GI50 (SK-MEL-2) was 1.45 µM (inactive). For the same compound, the GI50 (SN12C) was 2.01 µM (inactive), the GI50 (CAKI-1) was 0.791 µM (active) and the GI50 (SF-539) was 2.04 µM (inactive). For the same compound, the GI50 (UACC-257) was 2.65 µM (inactive), the GI50 (NCI-H226) was 1.06 µM (active) and the GI50 (U-251) was 1.41 µM (inactive). The GI50 (MCF7) was 7.76 µM (inactive), the GI50 (DU-145) was 1.02 µM (active) and the GI50 (MDA-MB-231) was 1.33 µM (inactive). For the same compound, the GI50 (786-0) was 1.74 µM (inactive), the GI50 (HOP-62) was 2.44 µM (inactive) and the GI50 (SNB-19) was 1.1 µM (active). For the same compound, the GI50 (SW-620) was 3.84 µM (inactive).
In the case of `COc1ccc2[nH]c3c([N+](=O)[O-])ccc(NCCN(C)C)c3/c(=N/CCN(C)C)c2c1`, the GI50 (MDA-MB-435) is reported as 1.63 µM (inactive), the GI50 (KM12) is reported as 1.26 µM (inactive) and the GI50 (SN12C) is reported as 1.37 µM (inactive). The GI50 (CAKI-1) was 3.97 µM (inactive), the GI50 (UACC-257) was > 10 µM (inactive) and the GI50 (MCF7) was 0.453 µM (active). The GI50 (DU-145) was 2.88 µM (inactive), the GI50 (MDA-MB-231) was 1.28 µM (inactive) and the GI50 (786-0) was 0.577 µM (active). The GI50 (HOP-62) was 0.695 µM (active) and the GI50 (SW-620) was 1.04 µM (active).
`CN(C)c1ccc(C(=C(c2ccc(N(C)C)cc2)c2ccc(N(C)C)cc2)c2ccc(N(C)C)cc2)cc1` was tested, and the GI50 (KM12) was 18.5 µM (inactive), the GI50 (A498) was 18.6 µM (inactive) and the GI50 (NCI-H522) was 0.301 µM (active). For the same compound, the GI50 (OVCAR-3) was 0.31 µM (active), the GI50 (SK-MEL-2) was 12.1 µM (inactive) and the GI50 (SN12C) was 16.2 µM (inactive). The GI50 (CAKI-1) was 12.4 µM (inactive), the GI50 (SF-539) was 13.8 µM (inactive) and the GI50 (UACC-257) was 17.3 µM (inactive). The GI50 (NCI-H226) was 19.8 µM (inactive), the GI50 (U-251) was 13.9 µM (inactive) and the GI50 (786-0) was 11.4 µM (inactive). The GI50 (HOP-62) was 39.5 µM (inactive), the GI50 (SNB-19) was 13.8 µM (inactive) and the GI50 (SW-620) was 1.87 µM (inactive).
`CCOP(=O)(OCC)C(C(=O)OC)C(=O)C(=O)Nc1cccc([N+](=O)[O-])c1` (stereo not drawn) was tested, and the GI50 (KM12) was > 100 µM (inactive), the GI50 (A498) was > 100 µM (inactive) and the GI50 (NCI-H522) was > 100 µM (inactive). For the same compound, the GI50 (OVCAR-3) was > 100 µM (inactive), the GI50 (SK-MEL-2) was > 100 µM (inactive) and the GI50 (SN12C) was > 100 µM (inactive). For the same compound, the GI50 (CAKI-1) was > 100 µM (inactive), the GI50 (SF-539) was > 100 µM (inactive) and the GI50 (UACC-257) was > 100 µM (inactive). The GI50 (NCI-H226) was > 100 µM (inactive), the GI50 (U-251) was > 100 µM (inactive) and the GI50 (786-0) was > 100 µM (inactive). For the same compound, the GI50 (HOP-62) was > 100 µM (inactive), the GI50 (SNB-19) was > 100 µM (inactive) and the GI50 (SW-620) was > 100 µM (inactive).
With `COc1ccc(-c2c(N)[n+]([O-])c3ccccc3[n+]2[O-])cc1OC` the GI50 (KM12) was > 100 µM (inactive), the GI50 (A498) was > 100 µM (inactive) and the GI50 (NCI-H522) was > 100 µM (inactive). The GI50 (OVCAR-3) was > 100 µM (inactive), the GI50 (SK-MEL-2) was > 100 µM (inactive) and the GI50 (SN12C) was > 100 µM (inactive). The GI50 (CAKI-1) was > 100 µM (inactive), the GI50 (SF-539) was > 100 µM (inactive) and the GI50 (UACC-257) was > 100 µM (inactive). The GI50 (NCI-H226) was > 100 µM (inactive), the GI50 (U-251) was > 100 µM (inactive) and the GI50 (786-0) was > 100 µM (inactive). For the same compound, the GI50 (HOP-62) was > 100 µM (inactive), the GI50 (SNB-19) was > 100 µM (inactive) and the GI50 (SW-620) was > 100 µM (inactive).
For `C=C1C(=O)OC2CC3(C)C=CC(=O)C(=C)C3CC12` (stereo not drawn), the GI50 (KM12) was 2.08 µM (inactive), the GI50 (A498) was 7.46 µM (inactive) and the GI50 (NCI-H522) was 0.47 µM (active). For the same compound, the GI50 (OVCAR-3) was 2.32 µM (inactive), the GI50 (SK-MEL-2) was 1.67 µM (inactive) and the GI50 (SN12C) was 1.69 µM (inactive). For the same compound, the GI50 (CAKI-1) was 1.36 µM (inactive), the GI50 (SF-539) was 1.53 µM (inactive) and the GI50 (UACC-257) was 1.64 µM (inactive). For the same compound, the GI50 (NCI-H226) was 12.1 µM (inactive), the GI50 (U-251) was 3.79 µM (inactive) and the GI50 (786-0) was 1.76 µM (inactive). For the same compound, the GI50 (HOP-62) was 14.7 µM (inactive), the GI50 (SNB-19) was 8.55 µM (inactive) and the GI50 (SW-620) was 1.04 µM (active).
